This is an account of results in patent US20010018454A1, “Method for protecting wood and wooden articles from fungal infection” (priority 2000, published 2001).

Structures are written as SMILES. Read-outs that look alike come from different tables or passages of the source.

The test system of one test is wood-damaging fungi. As to conditions: cited from earlier work.
The test system of a further test is blue stain infection. An excerpt: Immersion Impregnation with Aqueous Potassium Sorbate Solution Air-dry pine boards are dipped into a solution of 30% potassium sorbate in water for […] of the surface. After the treatment they are air dried.
Air-dried pine boards are, as in example 1, dipped into a solution of 30% potassium sorbate in a mixture of 75% by volume of water and 25% by volume of 1,2-propanediol, further treated and stored.
Air-dried pine boards are sprayed with a spraying pistol with a solution of 20% potassium sorbate in water until the surface is uniformly wet. The boards are then allowed to dry and are stored as in example 1.

The next test deals with molds. The conditions noted are these: 35° C. saturated water vapor. As to the method: Two pinewood boards in each case are dipped into potassium sorbate solution (see table 1 for concentrations) and stored in a saturated water vapor atmosphere at 35° C. In parallel with this, in each case two pinewood boards, after the dipping, were additionally dirtied with soil on the surface in order to achieve greater surface contamination with molds. The boards were individually packed in film in order to exclude cross contaminations and regularly visually examined for fungal infection.

The next test deals with fungi. The conditions noted are these: cited from earlier work.

Take `C/C=C/C=C/C(=O)[O-].C/C=C/C=C/C(=O)[O-].[Zn+2]` [zinc salt of sorbic acid]: in the test on wood-damaging fungi, the “Activity as wood preservative” value is “inactive”.
Turning to `C/C=C/C=C/C(=O)[O-].[K+]` [potassium sorbate], the “Fungal infection after storage” value in the test on blue stain infection (pine boards dipped in 30% potassium sorbate in 75% by volume water / 25% by volume 1,2-propanediol, stored as in example 1) is given as “completely free from fungal infection”; in the test with blue stain infection (pine boards dipped in 30% potassium sorbate in water, stored in the open three weeks next to untreated boards), “remain free from fungal infection”; in the test on blue stain infection (pine boards sprayed with 20% potassium sorbate in water, stored as in example 1), “corresponds to that of example 1”. Further, the Fungal infection entry in the test with molds (V1: dwell time 10 min, 1 % by weight solution, without soil) was “no/after 81 days”; with molds (V2: dwell time 10 min, 2 % by weight solution, without soil) it was “no/after 81 days”; with molds (V3: dwell time 10 min, 5 % by weight solution, without soil) it was “no/after 81 days”; in the test on molds (V4: dwell time 5 min, 10 % by weight solution, without soil), “no/after 81 days”; in the test with molds (V5: dwell time 10 min, 1 % by weight solution, with soil) it was “little/from day 43”; with molds (V6: dwell time 10 min, 2 % by weight solution, with soil), “little/from day 53”. The Fungal infection result in the test with molds (V7: dwell time 10 min, 5 % by weight solution, with soil) is “no/after 81 days”; in the test on molds (V8: dwell time 5 min, 10 % by weight solution, with soil), “no/after 81 days”.
For `C/C=C/C=C/C(=O)[O-].[Na+]` [sodium sorbate], the “Protection of bamboo against fungal infection” value in the test on fungi (generally, even after a few days) was “infection with fungi”; in the test on fungi (pH 3.0) it was “active”.
